# Patent US20210100859A1, “HERPES SIMPLEX VIRUS (HSV) ANTICANCER THERAPIES” (priority 2019, published 2021)
# Assays:
# ATP11B and ATP7B = assay: Western blot of efflux proteins; format: cell-based, human; details: TR127 and TR182 cells treated with RAMBO and/or CP
# TR127 cells = assay: Virus spread: GFP+ RAMBO infected cells by flow cytometry; format: cell-based, human; details: TR127, RAMBO MOI=0.1 1 hr then CP 2 μM 16 hr; presence vs absence of CP
# Protocol: FIGS. 1A-1J: RAMBO increases cisplatin accumulation in cisplatin-resistant ovarian cancer cells. (FIG. 1A) Representative histogram (left) and quantification (right) of percentage of GFP^+ infected cisplatin resistant ovarian cancer cells. TR127 cells infected with RAMBO (MOI=0.1) for 1 hr and then treated with CP (2 μM) for 16 hr. Data shown are mean percentage of GFP^+ RAMBO infected TR127 cells (±s.d) analyzed by flow cytometry (n=3/group). (FIG. 1B) Quantification of intracellular CP retained inside platin resistant OC cells treated with/without RAMBO. OVCAR8, TR127 and TR182 were treated with/without RAMBO (MOI=0.1) for one hour and then incubated with 2.5 μM Texas-red labeled CP. Twenty-four hours post-infection CP accumulation in cells was analyzed by flow cytometry. Data shown are mean fluorescence intensity (MFI) of Texas-red labeled CP (±s.d., n=3/group). […] Briefly, RNA harvested from OVTOKO cells treated with RAMBO (MOI=1) for 16 hr was analyzed by RNAseq. […] (FIG. 1I) Quantification of Texas-red labeled CP accumulation in TR127 cells knocked down for either ATP7B, ATP11B, or both was analyzed by flow cytometry (n=3/group). (FIG. 1J) Quantification of Texas-red labeled CP accumulation in OVTOKO cells overexpressing (OE) both ATP11B and ATP7B, or control (Ctl). Cells were analyzed by flow cytometry. […]
smiles,measurement,setting,value
"N.N.[Cl][Pt][Cl] [CP, cisplatin]",protein expression of ATP11B and ATP7B,ATP11B and ATP7B,no effect
same,GFP expression (GFP positive tumor cells as indicator of infection),TR127 cells,no difference
